Data on 13 molecules can be found in ChEMBL document CHEMBL5360522, “Design, Synthesis, and Biological Evaluation of New 1H-Imidazole-2-Carboxylic Acid Derivatives as Metallo-β-Lactamase Inhibitors” (Bioorg Med Chem, 2022).

Experiment [1] is described as follows: Inhibition of N-terminal His-6 tagged VIM-2 (27 to 266 residues) (unknown origin) expressed in Escherichia coli Transetta (DE3) using FC5 as fluorescence substrate preincubated for 10 mins followed by substrate addition by microplate reader analysis. The arrangement: species or system Bacteria.
Experiment [2] deals with Escherichia coli. In words: Antibacterial activity against Escherichia coli C1541 expressing IMP-1 assessed as meropenem MIC at 10 ug/ml incubated for 16 to 18 hrs in presence of meropenem by two-fold serial dilution method. The experiment is classed as functional. The settings on record: dose 10 µg/ml, time 16-18 hrs.
Experiment [3] is described as follows: Inhibition of Metallo-beta-lactamase VIM-5 (unknown origin) using FC5 as fluorescence substrate preincubated for 10 mins followed by substrate addition by microplate reader analysis.
Experiment [4] deals with Escherichia coli. In words: Antibacterial activity against Escherichia coli C1541 expressing VIM-2 assessed as meropenem MIC at 10 ug/ml incubated for 16 to 18 hrs in presence of meropenem by two-fold serial dilution method. The experiment is classed as functional. The conditions noted are these: dose 10 µg/ml, time 16-18 hrs.
Experiment [5] can be described thus: Inhibition of Metallo-beta-lactamase VIM-1 (unknown origin) using FC5 as fluorescence substrate preincubated for 10 mins followed by substrate addition by microplate reader analysis.
Experiment [6] has as its system Escherichia coli. Nature of the experiment: Antibacterial activity against Escherichia coli C1542 expressing VIM-2 assessed as meropenem MIC at 10 ug/ml incubated for 16 to 18 hrs in presence of meropenem by two-fold serial dilution method. Type of experiment: functional. The conditions noted are these: dose 10 µg/ml, time 16-18 hrs.
Experiment [7] is described as follows: Inhibition of Metallo-beta-lactamase IMP-1 (unknown origin) using FC5 as fluorescence substrate preincubated for 10 mins followed by substrate addition by microplate reader analysis.
Experiment [8] deals with Metallo-beta-lactamase type 2 (Bacteria, UniProt C7C422). Nature of the experiment: Inhibition of NDM-1 (1 to 270 residues) (unknown origin) expressed in Escherichia coli Transetta (DE3) using FC5 as fluorescence substrate preincubated for 10 mins followed by substrate addition by microplate reader analysis.

Some results are limits rather than exact numbers.

Metallo-beta-lactamase type 2, sequence (C7C422 whole entry, the tested form may be a part): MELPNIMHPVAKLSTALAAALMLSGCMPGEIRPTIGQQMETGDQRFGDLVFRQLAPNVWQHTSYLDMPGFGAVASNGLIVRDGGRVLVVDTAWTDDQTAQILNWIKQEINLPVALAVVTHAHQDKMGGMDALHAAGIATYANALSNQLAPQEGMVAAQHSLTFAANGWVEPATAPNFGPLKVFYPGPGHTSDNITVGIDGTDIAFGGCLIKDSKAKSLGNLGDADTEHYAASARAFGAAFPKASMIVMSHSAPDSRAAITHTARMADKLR

As for `O=C(O)c1nccn1C(C(=O)O)c1ccccc1` (centres undefined), the 50% inhibitory concentration (IC50) in experiment [1] was 7.48 µM; in experiment [3], 9.24 µM; in experiment [5], over 300 µM; in experiment [7] it was 1.59 µM; in experiment [8], over 300 µM. Moreover, the figures for the MIC in the experiment on Escherichia coli [2], in the experiment with Escherichia coli [4] and in the experiment on Escherichia coli [6] were 8 µg/mL, 16 µg/mL and 16 µg/mL, respectively.

As to `O=C(O)c1nccn1CCc1ccc(-c2cccs2)cc1`, the 50% inhibitory concentration (IC50) turned out to be 0.018 µM in experiment [1]; 0.018 µM in experiment [3]; 3.98 µM in experiment [5]; 64 µM in experiment [7]; 126 µM in experiment [8]. Further, the MIC in the experiment on Escherichia coli [2] was 8 µg/mL; with Escherichia coli [4], at most 0.25 µg/mL; in the experiment on Escherichia coli [6] it was at most 0.25 µg/mL.

With `O=C(O)c1nccn1CCc1ccc([N+](=O)[O-])cc1`, the half-inhibitory concentration (IC50) in experiment [1] was 0.04 µM; in experiment [3], 0.15 µM; in experiment [5], 4.84 µM; in experiment [7], over 100 µM; in experiment [8] it was over 100 µM. The minimum inhibitory concentration (MIC) is 8 µg/mL in the experiment on Escherichia coli [2], at most 0.25 µg/mL with Escherichia coli [4] and at most 0.25 µg/mL with Escherichia coli [6].

`O=C(O)c1nccn1CCc1cccc2ccccc12`: the IC50 in experiment [1] was determined as 0.07 µM; in experiment [3], 1.07 µM; in experiment [5], 4.13 µM; in experiment [7], 50.9 µM; in experiment [8] it was 74.8 µM. In addition, the MIC was 8 µg/mL with Escherichia coli [2], at most 0.25 µg/mL with Escherichia coli [4] and at most 0.25 µg/mL in the experiment with Escherichia coli [6].

Regarding `O=C(O)c1nccn1Cc1ccncc1`, the half-maximal inhibitory concentration (IC50) in experiment [1] is 0.56 µM; in experiment [3], 5.78 µM; in experiment [5], 29.5 µM; in experiment [7], over 300 µM; in experiment [8] it was over 300 µM. The values for the MIC in the experiment on Escherichia coli [2], in the experiment on Escherichia coli [4] and with Escherichia coli [6] were 8 µg/mL, at most 0.25 µg/mL and at most 0.25 µg/mL, respectively.

Take `O=C(O)c1nccn1Cc1ccccc1`: the half-inhibitory concentration (IC50) in experiment [1] came to 0.48 µM; in experiment [3] it was 1.55 µM; in experiment [5], 4.14 µM; in experiment [7], 32.1 µM; in experiment [8] it was 63.5 µM. Besides, the figures for the MIC with Escherichia coli [2], in the experiment with Escherichia coli [4] and in the experiment with Escherichia coli [6] were 8 µg/mL, 16 µg/mL and 16 µg/mL, respectively.

For the molecule `O=C(O)c1nccn1CCc1ccc(-c2ccccc2)cc1`, the half-maximal inhibitory concentration (IC50) in experiment [1] amounted to 0.06 µM; in experiment [3] it was 0.18 µM; in experiment [5] it was 2.37 µM; in experiment [7] it was 21.4 µM; in experiment [8] it was 25.4 µM. For the same molecule, the MIC is 8 µg/mL with Escherichia coli [2], 0.5 µg/mL with Escherichia coli [4] and at most 0.25 µg/mL in the experiment on Escherichia coli [6].

As for `O=C(O)c1nccn1CCCc1ccccc1`, the IC50 in experiment [1] was 0.63 µM; in experiment [3], 0.83 µM; in experiment [5] it was 0.63 µM; in experiment [7] it was 10.8 µM; in experiment [8], over 100 µM.

For the molecule `Cc1ccc(CCn2ccnc2C(=O)O)cc1`, the IC50 in experiment [1] is 0.48 µM; in experiment [3], 6.28 µM; in experiment [5], 15.7 µM; in experiment [7], over 100 µM; in experiment [8] it was over 100 µM.

With `O=C(O)c1nccn1CCc1ccc2ccccc2c1`, the IC50 in experiment [1] was 0.023 µM; in experiment [3], 0.14 µM; in experiment [5], 7.06 µM; in experiment [7], 46.8 µM; in experiment [8] it was over 100 µM. Besides, the MIC with Escherichia coli [2] is 8 µg/mL; in the experiment with Escherichia coli [4], 0.5 µg/mL; in the experiment with Escherichia coli [6], at most 0.25 µg/mL.

Take `CCC(c1ccccc1)n1ccnc1C(=O)O` (centres undefined): the IC50 in experiment [1] is 2.73 µM; in experiment [3], 2.59 µM; in experiment [5] it was 30.8 µM; in experiment [7] it was over 300 µM; in experiment [8], over 300 µM.

On to `O=C(O)c1ncsc1CCc1ccc(C(c2ccccc2)(c2ccccc2)c2ccccc2)cc1`, for which the IC50 is 0.23 µM in experiment [1]; 0.65 µM in experiment [3]; 9.56 µM in experiment [5]; 46.8 µM in experiment [7]; over 100 µM in experiment [8].

With `COc1cccc(CCn2ccnc2C(=O)O)c1`, the IC50 is 0.38 µM in experiment [1]; 10.7 µM in experiment [3]; 9.39 µM in experiment [5]; 70.2 µM in experiment [7]; over 100 µM in experiment [8].
